Source: US9090593B2, “Bicyclic compounds as Pim inhibitors” (AMGEN INC., priority 2010, dated 2015)
pIC50: −log10 of the molar value. Counter-ions that a name gives are not always drawn. Like-named read-outs stand apart in the source and are kept apart here.

What was measured:
[1] = target: T1, Pim-2 stably transfected into the U2OS human osteogenic sarcoma line (Homo sapiens, UniProt Q9P1W9); assay: Pim cell assay, phospho-BAD normalized against total BAD, U2OS stably transfected with Pim-2; type: cell-based
T1 construct: expressed in transfected cells; host or cells: U2OS human osteogenic sarcoma line
T1 sequence (Q9P1W9 whole entry): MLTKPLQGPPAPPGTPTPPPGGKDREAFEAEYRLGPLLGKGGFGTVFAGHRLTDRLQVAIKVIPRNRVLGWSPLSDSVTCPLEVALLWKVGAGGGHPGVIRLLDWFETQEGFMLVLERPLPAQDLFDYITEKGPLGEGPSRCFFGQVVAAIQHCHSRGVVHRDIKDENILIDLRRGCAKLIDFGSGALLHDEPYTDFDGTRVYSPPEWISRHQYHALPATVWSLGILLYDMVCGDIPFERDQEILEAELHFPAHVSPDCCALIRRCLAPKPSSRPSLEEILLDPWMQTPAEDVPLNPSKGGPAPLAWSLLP
Procedure: (§1) The cell lines used in the assay were generated by the stable transfection of either Pim-1 or Pim-2 into the U2OS human osteogenic sarcoma line. The assay for determination of the Pim activity in the engineered U2OS cell lines measures levels of phospho-BAD normalized against total BAD protein levels. It was conducted as follows:
(§2) The adherent cells were dissociated from the flasks using non-enzymatic cell dissociation solution (Sigma # C5914). […] The cells were then incubated overnight at 37° C., 5% CO2.
(§3) In addition to the 10-point dosing curve of the test compound, DMSO alone was run as the high control.
(§4) This dilution in DMSO was then diluted again into cell growth medium. Aliquots (12 uL) of the compound diluted in growth medium were then transferred to the appropriate wells of the 96-well plates containing cells to yield a final DMSO concentration of 0.3%.
(§5) The cell plates containing lysis buffer were then immediately stored at −70° C.
(§6) These prepared lysates were then assayed for phospho and total BAD according to the manufacturer's protocols (Meso Scale Diagnostics, Cat# K15103C-3 & # K15103D-3). The plates were read on the MSD Sector Imager 6000, and results were calculated according to the assay protocols ((% Phosphoprotein=((2×Phospho signal)/(Phospho signal+Total signal))×100)).

[2] = target: T2, Pim-1 stably transfected into the U2OS human osteogenic sarcoma line (Homo sapiens, UniProt P11309); assay: Pim cell assay, phospho-BAD normalized against total BAD, U2OS stably transfected with Pim-1; type: cell-based
T2 construct: expressed in transfected cells; host or cells: U2OS human osteogenic sarcoma line
T2 sequence (P11309 whole entry): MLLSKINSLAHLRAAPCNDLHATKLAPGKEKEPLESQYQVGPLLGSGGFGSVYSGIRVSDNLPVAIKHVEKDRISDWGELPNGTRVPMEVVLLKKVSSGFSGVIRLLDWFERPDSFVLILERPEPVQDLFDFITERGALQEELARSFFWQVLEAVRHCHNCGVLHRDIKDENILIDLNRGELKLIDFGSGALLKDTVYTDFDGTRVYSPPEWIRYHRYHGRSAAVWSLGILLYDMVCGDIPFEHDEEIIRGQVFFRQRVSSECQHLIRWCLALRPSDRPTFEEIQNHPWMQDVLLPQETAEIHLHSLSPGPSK
Procedure: as §1, §2, §3, §4, §5, §6

[3] = target: T3, full length recombinant Pim-1 protein (Homo sapiens, UniProt P11309); assay: Pim-1 enzyme assay (HTRF, phosphorylation of biotinylated-BAD (S112) peptide); type: biochemical; conditions: read-out: Pim_1_IC50
T3 construct: by full length recombinant Pim-1, Pim-2, or Pim-3 protein; hexahistidine tag followed by a thrombin cleavage site (N); made in house; host or cells: Sf9 (baculovirus) or E. coli (pET28)
T3 sequence (P11309 whole entry): as above
Procedure, shortened: (§7)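 Kinase: full-length human Pim-1/Pim-2, His6-thrombin tagged. Substrate biotin-BAD (S112) peptide. Buffer 60 mM Hepes pH 7.0, 0.05% BSA, 2 mM DTT. Stop 3 mM EDTA. Detection HTRF (Eu anti-pBAD/SA-APC). IC50 by 4-parameter logistic on POC.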

[4] = target: T4, full length recombinant Pim-2 protein (Homo sapiens, UniProt Q9P1W9); assay: Pim-2 enzyme assay (HTRF, phosphorylation of biotinylated-BAD (S112) peptide); type: biochemical; conditions: read-out: Pim2_IC50
T4 construct: by full length recombinant Pim-1, Pim-2, or Pim-3 protein; hexahistidine tag followed by a thrombin cleavage site (N); made in house; host or cells: Sf9 (baculovirus) or E. coli (pET28)
T4 sequence (Q9P1W9 whole entry): as the sequence (Q9P1W9 whole entry) above
Procedure, shortened: as §7

[5] = U2OS cells stably transfected with Pim-2, phospho-BAD, high dose […], read-out: Pim2_Cell_IC50
[6] = U2OS cells stably transfected with Pim-1, phospho-BAD, high dose […], read-out: Pim1_Cell_IC50
[7] = U2OS stably transfected with Pim-2, phospho-BAD normalized against total BAD, 29 min incubation, read-out: Pim2_Cell_IC50_
[8] = U2OS stably transfected with Pim-1, phospho-BAD normalized against total BAD, 29 min incubation, read-out: Pim1_Cell_IC50_

Compound | pIC50 [1, 5] | pIC50 [2, 6] | pIC50 ([3]; enzyme assay, Pim-1) | pIC50 ([4]; enzyme assay, Pim-2) | pIC50 [1, 7] | pIC50 [2, 8] | pIC50 [3] | pIC50 [4]
Nc1cncc(-c2ccc3[nH]nc(-c4cncc(N5CCC(N)CC5)n4)c3c2)c1 [Example 73, 5-(3-(6-(4-amino-1-piperidinyl)-2-pyrazinyl)-1H-indazol-5-yl)-3-pyridinamine] | < 4.50 | 6.05 | 9.00 | 8.52 |  |  |  | 
COc1cncc(-c2ccc3[nH]nc(-c4cncc(N5CCC(N)CC5)n4)c3c2)c1 [Example 79, 1-(6-(5-(5-methoxy-3-pyridinyl)-1H-indazol-3-yl)-2-pyrazinyl)-4-piperidinamine] | 5.41 | 6.74 | 9.00 | 8.05 |  |  |  | 
NC1CCN(c2cncc(-c3n[nH]c4ccc(-c5cccnc5)cc34)n2)CC1 [Example 82, 1-(6-(5-(3-pyridinyl)-1H-indazol-3-yl)-2-pyrazinyl)-4-piperidinamine] | 5.11 | 6.77 | 9.00 | 8.15 |  |  |  | 
c1cc(-c2ccc3[nH]nc(-c4cncc(O[C@@H]5CCCNC5)n4)c3c2)nc(NC2CC2)n1 [Example 242, N-cyclopropyl-4-(3-(6-((3R)-3-piperidinyloxy)-2-pyrazinyl)-1H-indazol-5-yl)-2-pyrimidinamine] |  |  |  |  | 4.50 | 6.43 | 8.30 | 6.97
c1cc2[nH]nc(-c3cncc(C4CC4)n3)c2cc1-c1cncc(C2CC2)n1 [Example 244, 3,5-bis(6-cyclopropyl-2-pyrazinyl)-1H-indazole] |  |  |  |  | < 5.00 | 6.77 | 9.00 | 8.52
c1cc2[nH]cc(-c3cncc(C4CC4)n3)c2cc1-c1cncc(C2CC2)n1 [Example 245, 3,5-bis(6-cyclopropyl-2-pyrazinyl)-1H-indole] |  |  |  |  | < 4.50 | 5.44 | 7.55 | 6.46
C1=C(c2ccc3[nH]nc(-c4cncc(O[C@H]5CNCCC56CC6)n4)c3c2)CCOC1 [Example 263, 3-(6-((4R)-6-azaspiro[25]oct-4-yloxy)-2-pyrazinyl)-5-(3,6-dihydro-2H-pyran-4-yl)-1H-indazole 2,2,2-trifluoroacetate salt] |  |  |  |  | 5.24 | 6.74 | 8.40 | 8.10
c1cc2[nH]nc(-c3cncc(O[C@H]4CNCCC45CC5)n3)c2cc1C1CCOCC1 [Example 264, 3-(6-((4R)-6-azaspiro[25]oct-4-yloxy)-2-pyrazinyl)-5-(tetrahydro-2H-pyran-4-yl)-1H-indazole-2,2,2-trifluoroacetate] |  |  |  |  | < 5.00 | 6.56 | 8.22 | 7.82
NC1CCN(c2nc(-c3c[nH]c4ccc(-c5c(F)cccc5F)cc34)cc(=O)[nH]2)CC1 [Example 277, 2-(4-aminopiperidin-1-yl)-6-(5-(2,6-difluorophenyl)-1H-indol-3-yl)pyrimidin-4(3H)-one] |  |  |  |  | < 4.50 | 5.61 | 9.00 | 8.70
CC(C)Nc1nc(-c2c[nH]c3ccc(-c4cncc(C5CC5)n4)cc23)cc(=O)[nH]1 [Example 287, 6-(5-(6-cyclopropylpyrazin-2-yl)-1H-indol-3-yl)-2-(isopropylamino) pyrimidin-4(3H)-one] |  |  |  |  | < 4.50 | 5.88 | 8.22 | 7.06
COc1cc(-c2ccc3[nH]cc(-c4cncc(O[C@@H]5CCCNC5)n4)c3c2)c(F)cn1 [Example 290] |  |  |  |  | 5.19 | 6.50 | 8.40 | 7.96
c1cc2[nH]cc(-c3cncc(O[C@@H]4CCCNC4)n3)c2cc1-c1cnn(C2CC2)c1 [Example 291, 5-(1-cyclopropyl-1H-pyrazol-4-yl)-3-(6-((3R)-3-piperidinyloxy)-2-pyrazinyl)-1H-indole] |  |  |  |  | 4.93 | 6.81 | 8.22 | 7.49
COc1ccc(-c2ccc3[nH]cc(-c4cncc(O[C@@H]5CCCNC5)n4)c3c2)cc1F [Example 292] |  |  |  |  | ≤ 4.45 | 6.19 | 8.40 | 7.72
Oc1ncc(-c2ccc3[nH]cc(-c4cncc(O[C@@H]5CCCNC5)n4)c3c2)c(O)n1 [Example 293] |  |  |  |  | < 4.50 | < 4.50 | 7.80 | 7.22
COc1cc(OC)cc(-c2ccc3[nH]cc(-c4cncc(O[C@@H]5CCCNC5)n4)c3c2)c1 [Example 294] |  |  |  |  | 5.02 | 6.28 | 8.15 | 7.59
Fc1cnccc1-c1ccc2[nH]cc(-c3cncc(O[C@@H]4CCCNC4)n3)c2c1 [Example 297, 5-(3-fluoro-4-pyridinyl)-3-(6-((3R)-3-piperidinyloxy)-2-pyrazinyl)-1H-indole] |  |  |  |  | 5.07 | 6.78 | 8.52 | 8.15

Compound | pIC50 [1, 5] | pIC50 [2, 6] | pIC50 ([3]; enzyme assay, Pim-1) | pIC50 ([4]; enzyme assay, Pim-2) | pIC50 [1, 7] | pIC50 [2, 8] | pIC50 [3] | pIC50 [4]
c1cc(-c2ccc3[nH]cc(-c4cncc(O[C@@H]5CCCNC5)n4)c3c2)nc(N2CCNCC2)c1 [Example 299] |  |  |  |  | < 4.50 | 5.90 | 8.52 | 6.64
c1cc(N2CCOCC2)ccc1-c1ccc2[nH]cc(-c3cncc(O[C@@H]4CCCNC4)n3)c2c1 [Example 309, 5-(4-(4-morpholinyl)phenyl)-3-(6-((3R)-3-piperidinyloxy)-2-pyrazinyl)-1H-indole] |  |  |  |  | 4.77 | 6.90 | 8.40 | 7.74
O=C(Nc1ccc(-c2ccc3[nH]cc(-c4cncc(O[C@@H]5CCCNC5)n4)c3c2)cc1)C1CC1 [Example 311] |  |  |  |  | < 4.50 | 6.39 | 8.10 | 7.60
OCc1cccc(-c2ccc3[nH]cc(-c4cncc(O[C@@H]5CCCNC5)n4)c3c2)c1 [Example 315] |  |  |  |  | 5.04 | 6.35 | 8.15 | 7.62
OCc1ccc(-c2ccc3[nH]cc(-c4cncc(O[C@@H]5CCCNC5)n4)c3c2)cc1 [Example 316, (4-(3-(6-((3R)-3-piperidinyloxy)-2-pyrazinyl)-1H-indol-5-yl)phenyl)methanol] |  |  |  |  | 5.47 | 6.99 | 8.70 | 8.05
COc1ccc(-c2ccc3[nH]cc(-c4cncc(O[C@@H]5CCCNC5)n4)c3c2)cc1 [Example 321] |  |  |  |  | 4.63 | 6.18 | 8.30 | 7.72
CC(C)Oc1ccc(-c2ccc3[nH]cc(-c4cncc(O[C@@H]5CCCNC5)n4)c3c2)cc1 [Example 324] |  |  |  |  | < 4.50 | 6.02 | 8.40 | 7.47
N#Cc1ccccc1-c1ccc2[nH]cc(-c3cncc(O[C@@H]4CCCNC4)n3)c2c1 [Example 326] |  |  |  |  | 5.14 | 6.50 | 8.52 | 8.00
CC(=O)Nc1ccc(-c2ccc3[nH]cc(-c4cncc(O[C@@H]5CCCNC5)n4)c3c2)cc1 [Example 327] |  |  |  |  | 5.09 | 6.18 | 8.30 | 7.72
N#Cc1ncccc1-c1ccc2[nH]cc(-c3cncc(O[C@@H]4CCCNC4)n3)c2c1 [Example 333] |  |  |  |  | < 5.00 | 6.10 | 7.96 | 7.40
c1cc2[nH]cc(-c3cncc(O[C@@H]4CCCNC4)n3)c2cc1-c1cnc2c(c1)CCCN2 [Example 335] |  |  |  |  | < 4.50 | 5.97 | 8.30 | 7.14
c1cc2cc(-c3ccc4[nH]cc(-c5cncc(O[C@@H]6CCCNC6)n5)c4c3)cnc2[nH]1 [Example 336] |  |  |  |  | < 5.00 | 6.07 | 8.10 | 7.48
Cc1n[nH]c2ncc(-c3ccc4[nH]cc(-c5cncc(O[C@@H]6CCCNC6)n5)c4c3)cc12 [Example 339] |  |  |  |  | < 4.50 | 5.59 | 7.85 | 7.04
Nc1ccc(-c2ccc3[nH]cc(-c4cncc(O[C@@H]5CCCNC5)n4)c3c2)cc1OC(F)(F)F [Example 341] |  |  |  |  | < 4.80 | 5.90 | 8.05 | 7.16
c1cc2c(cc1-c1ccc3[nH]cc(-c4cncc(O[C@@H]5CCCNC5)n4)c3c1)OCO2 [Example 343] |  |  |  |  | < 4.80 | 5.92 | 8.40 | 7.72
